Results taken from patent US10450258B2, “Substituted aromatic compounds for the treatment of pulmonary fibrosis, liver fibrosis, skin fibrosis and cardiac fibrosis” (PROMETIC PHARMA SMT LIMITED, priority 2013, dated 2019).
Entries after “also recorded” stand apart in the source; their conditions may differ.

Columns and labels:
[1] = system: normal human dermal fibroblasts (NHDF); test: Scratch assay (migration and invasion) of EGF-stimulated NHDF; assay type: cell-based; settings: mitomycin-treated NHDF, compound 0.5 mM, FIG. 26
Experimental: The next experiments (scratch assay, invasion/migration) were designed to determine the effect of Compound I on EGF-stimulated normal human dermal fibroblasts (NHDF). In summary, mitomycin-treated NHDF were stimulated with EGF and incubated in the presence or absence (control) of Compound I (0.5 mM). EGF stimulated fibroblast invasion into the scratch which is inhibited by Compound I (FIG. 26).

[2] = system: bleomycin-induced pulmonary fibrosis mouse model; test: Bleomycin-induced pulmonary fibrosis mouse model: body weight and lung histology; assay type: in vivo, mouse (male C57BL6)
Experimental: Intratracheal instillation of the anticancer drug bleomycin into the mouse results in acute inflammation followed by a chronic fibrotic response. Therefore, evaluation of candidate antifibrotic drugs such as Compound I can be undertaken by treatment of the mice at appropriate time points and histologic, biochemical and cellular readouts may be used to monitor candidate drug efficacy in this model.
Male C57BL6 mice are administered intratracheal instillation of bleomycin sulphate (0.025 U) at day 0, randomized and administered Compound I (oral administration, 100 mg/kg and 200 mg/kg) on day 7 to day 20.
Lesions score was evaluated using HEP (Hemalun with Eosin/Ploxine) and Masson's trichrome staining. Lesions score was recorded as 1) Consolidation as shown by disrupted lung architecture (cellular and/or fibrosis) and 2) Alveolar wall as shown by thickness and shrinking outside of consolidated area.
It was therefore evaluated side-by-side with Compound I in the bleomycin-induced pulmonary fibrosis mouse model by the same protocol described in Example 4 above. Compound I (200 mg/kg) and pirfenidone (400 mg/kg) were orally administered either alone or in combination.
Lesions score was evaluated using HEP (Hemalun with Eosin/Ploxine) and Masson's trichrome staining and recorded as 1) Consolidation as shown by disrupted lung architecture (cellular and/or fibrosis), and 2) Alveolar wall as shown by thickness and shrinking outside of consolidated area.
The lesions score as determined by the percentage of leukocyte infiltration (inflammatory zone) multiplied by the percentage of collagen found in the leukocyte infiltrate was quantified by histomorphometry using Masson's trichrome staining.
Visual grading of pulmonary fibrosis was also determined according to Ashcroft's score. Briefly, the entire fields of each lung section were read by a blinded examiner, and each field was visually graded from 0 to 8. Criteria for grading lung fibrosis were as follows: Grade 0=normal lung; Grade 1=minimal fibrous thickening of alveolar or bronchiolar walls; Grade 3=moderate thickening of walls without obvious damage to lung architecture; Grade 5=increased fibrosis with definitive damage to lung structure and formation of fibrous bands or small fibrous masses; Grade 7=severe distortion of structure and large fibrous area; Grade 8=total fibrous obliteration of lung fields.

[3] = system: heart fibrosis in 5/6 nephrectomized-catheterized rats; test: Heart fibrosis in 5/6 nephrectomized-catheterized (5/6-Nx) rats; assay type: in vivo, rat (male Sprague-Dawley); settings: for hydroxyproline (collagen) content in heart: FIG. 31
Description: Implantation of a femoral catheter increases the presence of heart fibrosis in our 5/6 nephrectomized (5/6-Nx) model and it was used to assess the effect of Compound I on heart fibrosis. In summary, male 6-week old Sprague-Dawley rats were subjected to 5/6-Nx or sham operations. Briefly, two-thirds of the left kidney was removed on day 0 followed by the right total nephrectomy on day 7. A catheter was implanted via the femoral vein on day 7. Sham operated rats underwent exposition of the kidneys and removal of the perirenal fat and were used as controls. Animals that underwent the sham operation were treated with vehicle (water) and were used as controls. On day 21, rats were randomized based on their glomerular filtration rate (GFR) results. 5/6-Nx animals were treated with three times a week intravenous administration of Compound I (10 mg/kg), or with daily oral administration with Compound I (200 mg/kg). Heart fibrosis was determined by the measurement of hydroxyproline (collagen content) and by histological evaluation (HPE and Masson's trichrome staining). As mentioned, implantation of catheter for intravenous administration of compounds in catheterized 5/6 nephrectomized animals is inducing heart fibrosis compare to oral treatment (no catheter). Oral treatment is identified herein with the expression “po” that means “per os”; intravenous administration is identified with the expression “iv” for “intravenous”. As exemplified in FIG. 27, 5/6-Nx rats have weak heart lesions. However, implantation of a catheter induced a significant increase (4 times) of heart lesions (fibrosis, necrosis and inflammation).

With CCCCCc1cccc(CC(=O)[O-])c1.[Na+] [Compound I, Sodium Salt of 3-pentylphenylacetic acid] the “EGF-stimulated fibroblast migration and invasion into the scratch” value [1] was “reduction of the migration and invasion; also recorded: inhibited”, the body weight loss ([2]; oral 200 mg/kg, day 7 to day 20, FIG. 1) was “reduced this body weight loss” and the “recovery of the body weight loss” value ([2]; oral 100 and 200 mg/kg vs vehicle (Bleo), FIG. 1 legend) was “recovery of the body weight loss”. The “histological lesions score of lungs (HEP and Masson's trichrome)” value ([2]; oral 100 and 200 mg/kg, day 7 to day 20, FIG. 2) was “significant reduction of lesions; also recorded: reduced histological lesions in a dose-dependent manner”, the “lesions and fibrosis in lungs (photomicrographs)” value ([2]; oral 100 and 200 mg/kg, FIG. 3) was “reduced lesions and fibrosis in lungs” and the “lesions score: percentage of leukocyte infiltration multiplied by percentage of collagen in the leukocyte infiltrate (histomorphometry, Masson's trichrome)” value ([2]; oral Compound I 200 mg/kg, FIG. 9) was “significantly reduced”. The “percentage of lungs affected by bleomycin” value ([2]; oral, Compound I 200 mg/kg, pirfenidone 400 mg/kg, alone or combined, FIG. 7) was “lower”, the “histological lesion score of lungs (HEP and Masson's trichrome)” value ([2]; oral, Compound I 200 mg/kg, pirfenidone 400 mg/kg, alone or combined, FIG. 8) was “significantly reduced histological lesions” and the “visual grading of pulmonary fibrosis (Ashcroft's score)” value ([2]; oral, Compound I 200 mg/kg, pirfenidone 400 mg/kg, alone or combined, FIG. 11) was “reduced”. The “lesions and fibrosis in lungs (photomicrographs stained with HEP)” value ([2]; oral, Compound I 200 mg/kg, pirfenidone 400 mg/kg, FIG. 10) was “reduced lesions and fibrosis in lungs”, the “inflammation level in heart” value ([3]; intravenous 10 mg/kg three times a week, FIG. 29) was “significant reduction of inflammation” and the “necrosis level in heart” value ([3]; intravenous 10 mg/kg three times a week, FIG. 30) was “significant reduction of necrosis”. For the same compound, the “hydroxyproline (collagen) content in heart” value ([3]; intravenous 10 mg/kg three times a week) was “significant reduction”, the “total heart lesions (histological evaluation)” value ([3]; intravenous 10 mg/kg three times a week, p<0.05, FIG. 28) was “reduces significantly” and the “heart fibrosis (blue-colored collagen deposition, Masson's trichrome photomicrographs)” value ([3]; intravenous, FIG. 34) was “reduces fibrosis”. The “hydroxyproline (collagen) content in heart” value ([3]; oral 200 mg/kg daily) was “significant reduction” and the “heart fibrosis (blue-colored collagen deposition, Masson's trichrome photomicrographs)” value ([3]; oral, FIGS. 32 and 33) was “reduces fibrosis”.
